Assay results taken from ChEMBL document CHEMBL5257135, “Synthesis of Artesunic Acid-Coumarin Hybrids as Potential Antimelanoma Agents” (ACS Med Chem Lett, 2023).
Calls of active or inactive are those of the source. No cut-off for these calls is given here.

Key:
[1] = test system: SK-MEL-28; experiment: Anticancer activity against human SK-MEL-28 cells assessed as reduction in cell viability incubated for 24 hrs by MTT assay; format: functional, cell-based; settings: SK-MEL-28, 24 h
[2] = test system: SK-MEL3; experiment: Anticancer activity against human SK-MEL3 cells assessed as reduction in cell viability incubated for 24 hrs by MTT assay; format: functional, cell-based; settings: SK-MEL3, 24 h
[3] = Selectivity index, ratio of IC50 for cytotoxicity against human C3PV cells to IC50 for anticancer activity against human SK-MEL3 cells; format: toxicity, cell-based; settings: C3PV cells and SK-MEL3 cells, read-out: Ratio IC50
[4] = Cytotoxicity against human C3PV cells assessed as reduction in cell viability incubated for 24 hrs by MTT assay; format: toxicity, cell-based; settings: for IC50 at 24 h: human, C3PV cells; for IC50: c3pv
[5] = test system: SK-MEL3; experiment: Anticancer activity against human SK-MEL3 cells assessed as reduction in cell viability incubated for 24 hrs in presence of deferoxamine by MTT assay; format: functional, cell-based; settings: SK-MEL3, 24 h
[6] = test system: C3PV; experiment: Induction of apoptosis in human C3PV cells assessed as dead cells at 0.05 uM by fluorescein diacetate, propidium iodide, and Hoechst staining based confocal microscopy; format: functional, cell-based
[7] = test system: SK-MEL-28; experiment: Induction of apoptosis in human SK-MEL-28 cells assessed as dead cells at 0.05 uM by fluorescein diacetate, propidium iodide, and Hoechst staining based confocal microscopy; format: functional, cell-based
[8] = test system: SK-MEL3; experiment: Induction of apoptosis in human SK-MEL3 cells assessed as dead cells at 0.05 uM by fluorescein diacetate, propidium iodide, and Hoechst staining based confocal microscopy; format: functional, cell-based
[9] = test system: SK-MEL-28; experiment: Antiproliferative activity against human SK-MEL-28 cells assessed as reduction in cell proliferation at 0.05 uM to incubated for 24 hrs by trypan blue exclusion assay; format: functional, cell-based
[10] = Cytotoxicity against human C3PV cells assessed as reduction in cell proliferation at 0.05 uM to incubated for 24 hrs by trypan blue exclusion assay; format: toxicity, cell-based
[11] = test system: SK-MEL3; experiment: Antiproliferative activity against human SK-MEL3 cells assessed as reduction in cell proliferation at 0.05 uM to incubated for 24 hrs by trypan blue exclusion assay; format: functional, cell-based
[12] = test system: SK-MEL-28; experiment: Induction of apoptosis in human SK-MEL-28 cells assessed as dead cells at 0.015 uM by fluorescein diacetate, propidium iodide, and Hoechst staining based confocal microscopy; format: functional, cell-based
[13] = test system: C3PV; experiment: Induction of apoptosis in human C3PV cells assessed as dead cells at 0.015 uM by fluorescein diacetate, propidium iodide, and Hoechst staining based confocal microscopy; format: functional, cell-based
[14] = test system: SK-MEL3; experiment: Induction of apoptosis in human SK-MEL3 cells assessed as dead cells at 0.015 uM by fluorescein diacetate, propidium iodide, and Hoechst staining based confocal microscopy; format: functional, cell-based
[15] = test system: SK-MEL3; experiment: Antiproliferative activity against human SK-MEL3 cells assessed as reduction in cell proliferation at 0.015 uM to incubated for 24 hrs by trypan blue exclusion assay; format: functional, cell-based
[16] = test system: SK-MEL-28; experiment: Antiproliferative activity against human SK-MEL-28 cells assessed as reduction in cell proliferation at 0.015 uM to incubated for 24 hrs by trypan blue exclusion assay; format: functional, cell-based
[17] = Cytotoxicity against human C3PV cells assessed as reduction in cell proliferation at 0.015 uM to incubated for 24 hrs by trypan blue exclusion assay; format: toxicity, cell-based
[18] = Drug localization in human SK-MEL3 cell nucleus incubated for 24 hrs by propidium iodide staining based Confocal microscopy; format: ADME, subcellular; settings: sk-mel3, 24 h
[19] = test system: SK-MEL3; experiment: Anticancer activity against human SK-MEL3 cells assessed as reduction in cell viability incubated for 24 hrs in presence of Artesunic acid by MTT assay; format: functional, cell-based; settings: SK-MEL3, 24 h

SMILES	IC50 [1]	IC50 [2]	selectivity ratio [3]	IC50 at 24 h [4]	also measured
COc1cc2ccc(=O)oc2cc1O [SCOPOLETIN]	3.43 µM	1500 nM	1.1	1.6 µM	–
C[C@H]1[C@H](OC(=O)CCC(=O)Oc2ccc3ccc(=O)oc3c2)O[C@@H]2C[C@]3(C)CC[C@H]4[C@H](C)CC[C@@H]1[C@@]24OO3	2.2 µM	50 nM	4320	216 µM	IC50 [5]: 118 nM; Activity [6]: inactive; Activity [7]: Active; Activity [8]: Active; Activity [9]: inactive; Activity [10]: Non-Toxic; Activity [11]: Active
C[C@H]1[C@H](OC(=O)CCC(=O)Oc2ccc3oc(=O)ccc3c2)O[C@@H]2C[C@]3(C)CC[C@H]4[C@H](C)CC[C@@H]1[C@@]24OO3	576 µM	15 nM	8810	132 µM	IC50 [5]: 1 nM; Activity [12]: inactive; Activity [13]: inactive; Activity [14]: Active; Activity [15]: Active; Activity [16]: inactive; Activity [17]: Non-Toxic
C[C@H]1[C@H](OC(=O)CCC(=O)Oc2ccc3c(C(F)(F)F)cc(=O)oc3c2)O[C@@H]2C[C@]3(C)CC[C@H]4[C@H](C)CC[C@@H]1[C@@]24OO3	6.84 µM	3600 nM	294	–	IC50 [4]: 1060 µM
C[C@H]1[C@H](OC(=O)CCC(=O)Oc2cc(=O)oc3ccccc23)O[C@@H]2C[C@]3(C)CC[C@H]4[C@H](C)CC[C@@H]1[C@@]24OO3	72.8 µM	2700 nM	119	321 µM	–
Nc1ccc2c(C(F)(F)F)cc(=O)oc2c1	0.98 µM	930 nM	29.4	27.4 µM	Drug uptake [18]: Active
Cc1cc(=O)oc2cc(O)ccc12 [HYMECROMONE]	0.58 µM	1600 nM	4.37	7 µM	–
O=c1cc(O)c2ccccc2o1 [4-HYDROXYCOUMARINS]	1.3 µM	2100 nM	0.29	0.6 µM	–
C[C@H]1[C@H](OC(=O)CCC(=O)Oc2cc3ccc(=O)oc3cc2O)O[C@@H]2C[C@]3(C)CC[C@H]4[C@H](C)CC[C@@H]1[C@@]24OO3	97.9 µM	1900 nM	361	–	IC50 [4]: 686 µM
O=c1oc2ccccc2cc1O [3-HYDROXYCOUMARIN]	1.2 µM	6800 nM	1.8	12.5 µM	–
C[C@H]1[C@H](OC(=O)CCC(=O)Nc2ccc3c(C(F)(F)F)cc(=O)oc3c2)O[C@@H]2C[C@]3(C)CC[C@H]4[C@H](C)CC[C@@H]1[C@@]24OO3	1090 µM	1300 nM	0.16	0.21 µM	Drug uptake [18]: Active
C[C@H]1[C@H](OC(=O)CCC(=O)Oc2cc3ccccc3oc2=O)O[C@@H]2C[C@]3(C)CC[C@H]4[C@H](C)CC[C@@H]1[C@@]24OO3	38 µM	1000 nM	5.64	5.64 µM	–
COc1cc2ccc(=O)oc2cc1OC(=O)CCC(=O)O[C@@H]1O[C@@H]2C[C@]3(C)CC[C@H]4[C@H](C)CC[C@@H]([C@H]1C)[C@@]24OO3	132 µM	4100 nM	0.74	3.05 µM	–
O=c1cc(C(F)(F)F)c2ccc(O)cc2o1	1.1 µM	580 nM	4.3	2.5 µM	–
O=c1ccc2cc(O)ccc2o1 [6-HYDROXYCOUMARIN]	0.45 µM	1850 nM	1.6	2.95 µM	IC50 [19]: 1140 nM
O=c1ccc2cc(O)c(O)cc2o1 [ESCULETIN]	0.96 µM	1700 nM	15.2	25.8 µM	–
CC(=O)O[C@H]1C(=O)[C@@]2(C)[C@H]([C@H](OC(=O)c3ccccc3)[C@]3(O)C[C@H](OC(=O)[C@H](O)[C@@H](NC(=O)c4ccccc4)c4ccccc4)C(C)=C1C3(C)C)[C@]1(OC(C)=O)CO[C@@H]1C[C@@H]2O [PACLITAXEL]	1.07 µM	4730 nM	16.7	78.9 µM	–
Cc1cc(=O)oc2cc(OC(=O)CCC(=O)O[C@@H]3O[C@@H]4C[C@]5(C)CC[C@H]6[C@H](C)CC[C@@H]([C@H]3C)[C@@]46OO5)ccc12	13.5 µM	2600 nM	0.25	0.66 µM	–
O=c1ccc2ccc(O)cc2o1 [UMBELLIFERONE]	0.48 µM	2100 nM	9.9	20.9 µM	IC50 [19]: 1600 nM
